Experimental data as given in ChEMBL document CHEMBL3611970, “Synthesis and evaluation of isatin-β-thiosemicarbazones as novel agents against antibiotic-resistant Gram-positive bacterial species” (2015).
Converted amounts (≈) assume the structure as drawn.

What was measured:
Type in all cases: functional
[1] = tested on: Klebsiella pneumoniae; assay: Antimicrobial activity against Klebsiella pneumoniae KP-249 clinical isolate after 16 hrs by broth microdilution method; settings: KP-249, 16 h
[2] = tested on: Staphylococcus aureus; assay: Antimicrobial activity against methicillin-resistant Staphylococcus aureus 8-21 clinical isolate after 16 hrs by broth microdilution method; settings: 8-21, 16 h
[3] = tested on: Staphylococcus aureus; assay: Antimicrobial activity against methicillin-resistant Staphylococcus aureus 8-24 clinical isolate after 16 hrs by broth microdilution method; settings: 8-24, 16 h
[4] = tested on: Staphylococcus aureus; assay: Antimicrobial activity against methicillin-resistant Staphylococcus aureus 309-8 clinical isolate after 16 hrs by broth microdilution method; settings: 309-8, 16 h
[5] = tested on: Staphylococcus aureus; assay: Antimicrobial activity against methicillin-resistant Staphylococcus aureus Chaoyang clinical isolate after 16 hrs by broth microdilution method
[6] = tested on: Staphylococcus aureus; assay: Antimicrobial activity against Staphylococcus aureus ATCC 6538 after 16 hrs by broth microdilution method; settings: ATCC 6538, 16 h
[7] = tested on: Staphylococcus aureus; assay: Antimicrobial activity against methicillin-resistant Staphylococcus aureus 6-42 clinical isolate after 16 hrs by broth microdilution method; settings: 6-42, 16 h
[8] = tested on: Enterococcus faecalis; assay: Antimicrobial activity against Enterococcus faecalis VRE-309 after 16 hrs by broth microdilution method; settings: VRE-309, 16 h
[9] = tested on: Staphylococcus aureus; assay: Antimicrobial activity against methicillin-resistant Staphylococcus aureus 309-3 clinical isolate after 16 hrs by broth microdilution method; settings: 309-3, 16 h
[10] = tested on: Staphylococcus aureus; assay: Antimicrobial activity against methicillin-resistant Staphylococcus aureus 309-6 clinical isolate after 16 hrs by broth microdilution method; settings: 309-6, 16 h
[11] = tested on: Staphylococcus aureus; assay: Antimicrobial activity against methicillin-resistant Staphylococcus aureus 309-4 clinical isolate after 16 hrs by broth microdilution method; settings: 309-4, 16 h
[12] = tested on: Staphylococcus aureus; assay: Antimicrobial activity against methicillin-resistant Staphylococcus aureus 309-7 clinical isolate after 16 hrs by broth microdilution method; settings: 309-7, 16 h
[13] = tested on: Bacillus spizizenii; assay: Antimicrobial activity against Bacillus subtilis ATCC 6633 after 16 hrs by broth microdilution method; settings: ATCC 6633, 16 h
[14] = tested on: Pseudomonas aeruginosa; assay: Antimicrobial activity against Pseudomonas aeruginosa PAO1 after 16 hrs by broth microdilution method; settings: PAO1, 16 h
[15] = tested on: Enterococcus faecalis; assay: Antimicrobial activity against vancomycin-susceptible Enterococcus faecalis after 16 hrs by broth microdilution method
[16] = tested on: Staphylococcus aureus; assay: Antimicrobial activity against methicillin-resistant Staphylococcus aureus 309-1 clinical isolate after 16 hrs by broth microdilution method; settings: 309-1, 16 h
[17] = tested on: Staphylococcus aureus; assay: Antimicrobial activity against methicillin-resistant Staphylococcus aureus 6281 clinical isolate after 16 hrs by broth microdilution method; settings: Staphylococcus aureus, 6281, 16 h

Row | SMILES | MIC [1] [µg/mL] | MIC [2] [µg/mL] | MIC [3] [µg/mL] | MIC [4] [µg/mL] | MIC [5] [µg/mL] | MIC [6] [µg/mL] | MIC [7] [µg/mL] | MIC [8] [µg/mL] | MIC [9] [µg/mL] | MIC [10] [µg/mL] | MIC [11] [µg/mL] | MIC [12] [µg/mL] | MIC [13] [µg/mL] | MIC [14] [µg/mL] | MIC [15] [µg/mL] | MIC [16] [µg/mL] | MIC [17] [µg/mL]
1 | O=C1Nc2c(Cl)cccc2/C1=N/NC(=S)Nc1ccccc1 | > 100 | 3.12 (≈ 9.43 µM) | 1.56 (≈ 4.72 µM) | 1.56 (≈ 4.72 µM) | 0.78 (≈ 2.36 µM) | 1.56 (≈ 4.72 µM) | 3.12 (≈ 9.43 µM) | 3.12 (≈ 9.43 µM) | 6.25 (≈ 18.9 µM) | 6.25 (≈ 18.9 µM) | 1.56 (≈ 4.72 µM) | 0.78 (≈ 2.36 µM) | ≤ 0.78 | > 100 | 6.25 (≈ 18.9 µM) | 6.25 (≈ 18.9 µM) | 1.56 (≈ 4.72 µM)
2 | O=C1Nc2c(Cl)cccc2/C1=N/NC(=S)Nc1ccc(Cl)cc1 | > 100 | 0.78 (≈ 2.14 µM) | 1.56 (≈ 4.27 µM) | 1.56 (≈ 4.27 µM) | 0.39 (≈ 1.07 µM) | 1.56 (≈ 4.27 µM) | 0.78 (≈ 2.14 µM) | 1.56 (≈ 4.27 µM) | 1.56 (≈ 4.27 µM) | 1.56 (≈ 4.27 µM) | 0.78 (≈ 2.14 µM) | 0.78 (≈ 2.14 µM) | ≤ 0.78 | > 100 | 3.12 (≈ 8.54 µM) | 0.78 (≈ 2.14 µM) | 1.56 (≈ 4.27 µM)
3 | Cc1ccc(NC(=S)N/N=C2\C(=O)Nc3c(Cl)cccc32)cc1 | > 100 | 0.78 (≈ 2.26 µM) | 1.56 (≈ 4.52 µM) | 0.78 (≈ 2.26 µM) | 0.39 (≈ 1.13 µM) | 1.56 (≈ 4.52 µM) | 0.78 (≈ 2.26 µM) | 3.12 (≈ 9.05 µM) | 0.78 (≈ 2.26 µM) | 1.56 (≈ 4.52 µM) | 0.78 (≈ 2.26 µM) | 0.78 (≈ 2.26 µM) | ≤ 0.78 | > 100 | 6.25 (≈ 18.1 µM) | 0.78 (≈ 2.26 µM) | 1.56 (≈ 4.52 µM)
4 | Cc1ccccc1NC(=S)N/N=C1\C(=O)Nc2c(Cl)cccc21 | > 100 | 0.78 (≈ 2.26 µM) | 1.56 (≈ 4.52 µM) | 1.56 (≈ 4.52 µM) | 0.78 (≈ 2.26 µM) | 1.56 (≈ 4.52 µM) | 0.78 (≈ 2.26 µM) | 3.12 (≈ 9.05 µM) | 1.56 (≈ 4.52 µM) | 1.56 (≈ 4.52 µM) | 1.56 (≈ 4.52 µM) | 0.78 (≈ 2.26 µM) | ≤ 0.78 | > 100 | 6.25 (≈ 18.1 µM) | 1.56 (≈ 4.52 µM) | 1.56 (≈ 4.52 µM)
5 | Cc1cccc(NC(=S)N/N=C2\C(=O)Nc3c(Cl)cccc32)c1 | > 100 | 0.78 (≈ 2.26 µM) | 1.56 (≈ 4.52 µM) | 1.56 (≈ 4.52 µM) | 0.78 (≈ 2.26 µM) | 1.56 (≈ 4.52 µM) | 0.78 (≈ 2.26 µM) | 3.12 (≈ 9.05 µM) | 1.56 (≈ 4.52 µM) | 1.56 (≈ 4.52 µM) | 1.56 (≈ 4.52 µM) | 0.78 (≈ 2.26 µM) | ≤ 0.78 | > 100 | 6.25 (≈ 18.1 µM) | 0.78 (≈ 2.26 µM) | 3.12 (≈ 9.05 µM)
6 | O=C1Nc2c(Br)cccc2/C1=N/NC(=S)Nc1ccc(F)cc1 | > 100 | 0.78 (≈ 1.98 µM) | 1.56 (≈ 3.97 µM) | 0.78 (≈ 1.98 µM) | 0.39 (≈ 0.992 µM) | 1.56 (≈ 3.97 µM) | 0.78 (≈ 1.98 µM) | 1.56 (≈ 3.97 µM) | 0.78 (≈ 1.98 µM) | 1.56 (≈ 3.97 µM) | 0.78 (≈ 1.98 µM) | 0.39 (≈ 0.992 µM) | ≤ 0.78 | > 100 | 3.12 (≈ 7.93 µM) | 0.78 (≈ 1.98 µM) | 1.56 (≈ 3.97 µM)
7 | O=C1Nc2c(Br)cccc2/C1=N/NC(=S)Nc1ccc(Cl)cc1 | > 100 | 0.78 (≈ 1.9 µM) | 1.56 (≈ 3.81 µM) | 0.78 (≈ 1.9 µM) | 0.39 (≈ 0.952 µM) | 1.56 (≈ 3.81 µM) | 0.78 (≈ 1.9 µM) | 1.56 (≈ 3.81 µM) | 0.78 (≈ 1.9 µM) | 1.56 (≈ 3.81 µM) | 0.78 (≈ 1.9 µM) | 0.39 (≈ 0.952 µM) | ≤ 0.78 | > 100 | 3.12 (≈ 7.62 µM) | 0.78 (≈ 1.9 µM) | 1.56 (≈ 3.81 µM)
8 | Cc1ccc(NC(=S)N/N=C2\C(=O)Nc3c(C)cccc32)cc1 | > 100 | 3.12 (≈ 9.62 µM) | 3.12 (≈ 9.62 µM) | 1.56 (≈ 4.81 µM) | 1.56 (≈ 4.81 µM) | 3.12 (≈ 9.62 µM) | 1.56 (≈ 4.81 µM) | 3.12 (≈ 9.62 µM) | 3.12 (≈ 9.62 µM) | 3.12 (≈ 9.62 µM) | 1.56 (≈ 4.81 µM) | 1.56 (≈ 4.81 µM) | ≤ 0.78 | > 100 | 6.25 (≈ 19.3 µM) | 3.12 (≈ 9.62 µM) | 3.12 (≈ 9.62 µM)
9 | Cc1cccc2c1NC(=O)/C2=N\NC(=S)Nc1ccc(Cl)cc1 | > 100 | 1.56 (≈ 4.52 µM) | 1.56 (≈ 4.52 µM) | 1.56 (≈ 4.52 µM) | 0.78 (≈ 2.26 µM) | 1.56 (≈ 4.52 µM) | 1.56 (≈ 4.52 µM) | 1.56 (≈ 4.52 µM) | 3.12 (≈ 9.05 µM) | 3.12 (≈ 9.05 µM) | 1.56 (≈ 4.52 µM) | 1.56 (≈ 4.52 µM) | 1.56 (≈ 4.52 µM) | > 100 | 3.12 (≈ 9.05 µM) | 1.56 (≈ 4.52 µM) | 3.12 (≈ 9.05 µM)
10 | Cc1cccc2c1NC(=O)/C2=N\NC(=S)Nc1ccc(F)cc1 | > 100 | 1.56 (≈ 4.75 µM) | 1.56 (≈ 4.75 µM) | 1.56 (≈ 4.75 µM) | 0.78 (≈ 2.38 µM) | 1.56 (≈ 4.75 µM) | 1.56 (≈ 4.75 µM) | 1.56 (≈ 4.75 µM) | 1.56 (≈ 4.75 µM) | 1.56 (≈ 4.75 µM) | 1.56 (≈ 4.75 µM) | 0.78 (≈ 2.38 µM) | ≤ 0.78 | > 100 | 3.12 (≈ 9.5 µM) | 1.56 (≈ 4.75 µM) | 3.12 (≈ 9.5 µM)
11 | Cc1ccccc1NC(=S)N/N=C1\C(=O)Nc2c(F)cccc21 | > 100 | 1.56 (≈ 4.75 µM) | 1.56 (≈ 4.75 µM) | 1.56 (≈ 4.75 µM) | 1.56 (≈ 4.75 µM) | 3.12 (≈ 9.5 µM) | 1.56 (≈ 4.75 µM) | 6.25 (≈ 19 µM) | 3.12 (≈ 9.5 µM) | 3.12 (≈ 9.5 µM) | 1.56 (≈ 4.75 µM) | 1.56 (≈ 4.75 µM) | ≤ 0.78 | > 100 | 6.25 (≈ 19 µM) | 1.56 (≈ 4.75 µM) | 3.12 (≈ 9.5 µM)
12 | O=C1Nc2c(F)cccc2/C1=N/NC(=S)Nc1ccc(F)cc1 | > 100 | 1.56 (≈ 4.69 µM) | 1.56 (≈ 4.69 µM) | 1.56 (≈ 4.69 µM) | 0.78 (≈ 2.35 µM) | 1.56 (≈ 4.69 µM) | 1.56 (≈ 4.69 µM) | 3.12 (≈ 9.39 µM) | 1.56 (≈ 4.69 µM) | 3.12 (≈ 9.39 µM) | 1.56 (≈ 4.69 µM) | 1.56 (≈ 4.69 µM) | 1.56 (≈ 4.69 µM) | > 100 | 3.12 (≈ 9.39 µM) | 1.56 (≈ 4.69 µM) | 3.12 (≈ 9.39 µM)
13 | Cc1cccc(NC(=S)N/N=C2\C(=O)Nc3c(F)cccc32)c1 | > 100 | 0.78 (≈ 2.38 µM) | 1.56 (≈ 4.75 µM) | 0.78 (≈ 2.38 µM) | 0.39 (≈ 1.19 µM) | 1.56 (≈ 4.75 µM) | 0.78 (≈ 2.38 µM) | 3.12 (≈ 9.5 µM) | 0.78 (≈ 2.38 µM) | 1.56 (≈ 4.75 µM) | 0.78 (≈ 2.38 µM) | 0.78 (≈ 2.38 µM) | ≤ 0.78 | > 100 | 3.12 (≈ 9.5 µM) | 0.78 (≈ 2.38 µM) | 1.56 (≈ 4.75 µM)
